The values below come from US20050025809A1, “Poly-4-hydroxybutyrate matrices for sustained drug delivery” (Tepha, Inc., priority 2003, published 2005).

A short description of data set [1]: Drug release from PHA3444 rods in PBS. The note with it: PHA3444-34%:drug 2:1 rods. The format is physicochemical. The text has this: The paste was then introduced into a mold measuring 150×5×5 mm, and left to dry at ambient temperature.
Where [2] appears, read: PHA4400 loaded 10:1, PBS pH 7.4, 37° C.

Read-outs that look alike come from different tables or passages of the source.

Consider `CN(C)[C@@H]1C(O)=C(C(N)=O)C(=O)[C@@]2(O)C(O)=C3C(=O)c4c(O)cccc4[C@@](C)(O)[C@H]3C[C@@H]12` [TCN, Tetracycline (neutral)], for which the “burst of release” value in data set [1] is on record as “No burst of release was observed” and the “burst of release” value under setting [2] is listed as “no burst”. This compound also yielded an average cumulative release in data set [1] (PBS pH 7.4, 37° C., at 17 days) of around 23% and an average cumulative release (PHA4400:drug 2:1 rods, PBS pH 7.4, 37° C., at 11 days) of around 9%. Also, the “release order” value under setting [2] was “almost perfect zero order release after the first hour”. The same compound registered a total release (PHA4400 loaded 10:1, in fifteen days) of 17%.
